The NIST ThermoML archive (doi:10.1021/je100715x)

Experiments:
[1] = xn = mol fraction of the nth substance listed; details: 101 kPa, Liquid; for viscosity: Capillary tube (Ostwald / Ubbelohde) method; for mass density: Vibrating tube method
[2] = refractive index (Na D-line) (dimensionless); xn = mol fraction of the nth substance listed; details: 101 kPa, Liquid, Standard Abbe refractometry

CCOC(=O)C(=O)OCC [diethyl ethanedioate] + CC(=O)c1ccccc1
Details	mass density, 303.15 K [kg/m3]	mass density, 308.15 K [kg/m3]	mass density, 313.15 K [kg/m3]	refractive index, 303.15 K	refractive index, 308.15 K	refractive index, 313.15 K	viscosity, 303.15 K [mPa·s]	viscosity, 308.15 K [mPa·s]	viscosity, 313.15 K [mPa·s]
[1], x1 = 0.0875	1024.1	1021	1017.4	–	–	–	1.557	1.405	1.308
[1], x1 = 0.1478	1026.7	1023.6	1019.9	–	–	–	1.578	1.418	1.317
[1], x1 = 0.2538	1031.2	1027.9	1024	–	–	–	1.61	1.439	1.333
[1], x1 = 0.3443	1034.9	1031.5	1027.5	–	–	–	1.628	1.454	1.344
[1], x1 = 0.4591	1039.9	1036.2	1032	–	–	–	1.645	1.467	1.355
[1], x1 = 0.5501	1044	1040.1	1035.7	–	–	–	1.655	1.477	1.362
[1], x1 = 0.6601	1049.3	1045.2	1040.2	–	–	–	1.657	1.485	1.366
[1], x1 = 0.7601	1054.3	1049.8	1044.5	–	–	–	1.654	1.487	1.37
[1], x1 = 0.8846	1060.6	1055.6	1049.9	–	–	–	1.648	1.489	1.373
[1], x1 = 0.95	1063.8	1058.5	1052.5	–	–	–	1.635	1.49	1.375
[2], x1 = 0.0875	–	–	–	1.5171	1.5151	1.5133	–	–	–
[2], x1 = 0.1478	–	–	–	1.5087	1.5068	1.5053	–	–	–
[2], x1 = 0.2538	–	–	–	1.4945	1.4928	1.4912	–	–	–
[2], x1 = 0.3443	–	–	–	1.4826	1.4811	1.4796	–	–	–
[2], x1 = 0.4591	–	–	–	1.4685	1.4671	1.4656	–	–	–
[2], x1 = 0.5501	–	–	–	1.4574	1.456	1.4544	–	–	–
[2], x1 = 0.6601	–	–	–	1.4439	1.4424	1.4411	–	–	–
[2], x1 = 0.7601	–	–	–	1.4325	1.4309	1.4293	–	–	–
[2], x1 = 0.8846	–	–	–	1.4187	1.4167	1.4154	–	–	–
[2], x1 = 0.95	–	–	–	1.4117	1.4095	1.4079	–	–	–

CCOC(=O)C(=O)OCC [diethyl ethanedioate] + CCC(=O)CC
Details	mass density, 303.15 K [kg/m3]	mass density, 308.15 K [kg/m3]	mass density, 313.15 K [kg/m3]	refractive index, 303.15 K	refractive index, 308.15 K	refractive index, 313.15 K	viscosity, 303.15 K [mPa·s]	viscosity, 308.15 K [mPa·s]	viscosity, 313.15 K [mPa·s]
[1], x1 = 0.0865	834	829.9	825.8	–	–	–	0.485	0.452	0.44
[1], x1 = 0.1436	852	847.8	843.6	–	–	–	0.527	0.491	0.478
[1], x1 = 0.2448	882.5	878.2	873.8	–	–	–	0.61	0.567	0.551
[1], x1 = 0.3389	909.4	905	900.5	–	–	–	0.701	0.65	0.627
[1], x1 = 0.4495	939.4	934.8	930.1	–	–	–	0.818	0.759	0.726
[1], x1 = 0.5325	960.8	956.1	951.2	–	–	–	0.916	0.848	0.808
[1], x1 = 0.6518	990	985.1	979.9	–	–	–	1.071	0.987	0.936
[1], x1 = 0.7587	1014.7	1009.6	1004.2	–	–	–	1.224	1.121	1.061
[1], x1 = 0.8659	1038.2	1032.9	1027.2	–	–	–	1.395	1.274	1.196
[1], x1 = 0.9438	1054.6	1049.1	1043.3	–	–	–	1.525	1.391	1.295
[2], x1 = 0.0865	–	–	–	1.3901	1.3881	1.3861	–	–	–
[2], x1 = 0.1436	–	–	–	1.3916	1.3897	1.3877	–	–	–
[2], x1 = 0.2448	–	–	–	1.3941	1.3924	1.3906	–	–	–
[2], x1 = 0.3389	–	–	–	1.3962	1.3947	1.393	–	–	–
[2], x1 = 0.4495	–	–	–	1.3984	1.3969	1.3954	–	–	–
[2], x1 = 0.5325	–	–	–	1.3999	1.3983	1.3969	–	–	–
[2], x1 = 0.6518	–	–	–	1.4018	1.4	1.3986	–	–	–
[2], x1 = 0.7587	–	–	–	1.4033	1.4014	1.3998	–	–	–
[2], x1 = 0.8659	–	–	–	1.4047	1.4026	1.4008	–	–	–
[2], x1 = 0.9438	–	–	–	1.4056	1.4034	1.4015	–	–	–

CCOC(=O)C(=O)OCC [diethyl ethanedioate] + O=C1CCCC1
Details	mass density, 303.15 K [kg/m3]	mass density, 308.15 K [kg/m3]	mass density, 313.15 K [kg/m3]	refractive index, 303.15 K	refractive index, 308.15 K	refractive index, 313.15 K	viscosity, 303.15 K [mPa·s]	viscosity, 308.15 K [mPa·s]	viscosity, 313.15 K [mPa·s]
[1], x1 = 0.0679	950.9	946.1	941.1	–	–	–	1.045	0.96	0.891
[1], x1 = 0.1501	965	960.1	954.9	–	–	–	1.095	0.999	0.925
[1], x1 = 0.2518	981	976	970.6	–	–	–	1.153	1.048	0.968
[1], x1 = 0.3903	1000.6	995.4	989.9	–	–	–	1.233	1.119	1.031
[1], x1 = 0.4511	1008.5	1003.2	997.7	–	–	–	1.265	1.152	1.058
[1], x1 = 0.5509	1020.7	1015.3	1009.7	–	–	–	1.326	1.207	1.107
[1], x1 = 0.6587	1032.9	1027.4	1021.7	–	–	–	1.394	1.269	1.163
[1], x1 = 0.7587	1043.4	1037.9	1032.1	–	–	–	1.458	1.329	1.219
[1], x1 = 0.8755	1054.9	1049.3	1043.3	–	–	–	1.537	1.401	1.288
[1], x1 = 0.961	1062.7	1057	1051	–	–	–	1.596	1.454	1.342
[2], x1 = 0.0679	–	–	–	1.4299	1.4278	1.4262	–	–	–
[2], x1 = 0.1501	–	–	–	1.4264	1.4244	1.4231	–	–	–
[2], x1 = 0.2518	–	–	–	1.4226	1.4207	1.4198	–	–	–
[2], x1 = 0.3903	–	–	–	1.4182	1.4164	1.4158	–	–	–
[2], x1 = 0.4511	–	–	–	1.4164	1.4147	1.4142	–	–	–
[2], x1 = 0.5509	–	–	–	1.4139	1.4122	1.4116	–	–	–
[2], x1 = 0.6587	–	–	–	1.4115	1.4098	1.4089	–	–	–
[2], x1 = 0.7587	–	–	–	1.4098	1.4079	1.4067	–	–	–
[2], x1 = 0.8755	–	–	–	1.408	1.4059	1.4043	–	–	–
[2], x1 = 0.961	–	–	–	1.4068	1.4045	1.4027	–	–	–

CCOC(=O)C(=O)OCC [diethyl ethanedioate] + O=C1CCCCC1
Details	mass density, 303.15 K [kg/m3]	mass density, 308.15 K [kg/m3]	mass density, 313.15 K [kg/m3]	refractive index, 303.15 K	refractive index, 308.15 K	refractive index, 313.15 K	viscosity, 303.15 K [mPa·s]	viscosity, 308.15 K [mPa·s]	viscosity, 313.15 K [mPa·s]
[1], x1 = 0.0784	950.2	945.1	940.1	–	–	–	1.777	1.595	1.466
[1], x1 = 0.1495	961	955.8	950.6	–	–	–	1.737	1.556	1.416
[1], x1 = 0.2501	975.4	970.3	964.9	–	–	–	1.682	1.5	1.36
[1], x1 = 0.3443	988.4	983.1	977.7	–	–	–	1.637	1.461	1.325
[1], x1 = 0.4324	1000	994.7	989.2	–	–	–	1.609	1.435	1.304
[1], x1 = 0.5507	1015.1	1009.6	1004	–	–	–	1.584	1.415	1.285
[1], x1 = 0.6755	1030.3	1024.7	1019	–	–	–	1.575	1.404	1.276
[1], x1 = 0.7601	1040.2	1034.5	1028.7	–	–	–	1.581	1.407	1.284
[1], x1 = 0.8756	1053.1	1047.4	1041.4	–	–	–	1.606	1.437	1.329
[1], x1 = 0.9502	1061	1055.3	1049.3	–	–	–	1.62	1.464	1.351
[2], x1 = 0.0784	–	–	–	1.4429	1.4406	1.4388	–	–	–
[2], x1 = 0.1495	–	–	–	1.4399	1.4376	1.4359	–	–	–
[2], x1 = 0.2501	–	–	–	1.4359	1.434	1.4321	–	–	–
[2], x1 = 0.3443	–	–	–	1.4323	1.4307	1.4287	–	–	–
[2], x1 = 0.4324	–	–	–	1.4287	1.4273	1.4252	–	–	–
[2], x1 = 0.5507	–	–	–	1.4239	1.4223	1.4204	–	–	–
[2], x1 = 0.6755	–	–	–	1.4186	1.4168	1.4152	–	–	–
[2], x1 = 0.7601	–	–	–	1.4154	1.4133	1.4116	–	–	–
[2], x1 = 0.8756	–	–	–	1.4108	1.4088	1.4071	–	–	–
[2], x1 = 0.9502	–	–	–	1.4081	1.4059	1.4043	–	–	–
